Read-outs that look alike come from different tables or passages of the source.
Tests used:
[1] = tested on: acetic acid induced writhes; assay: Acetic acid writhing; type: in vivo, ICR-strain male mouse; conditions: i.p., 30 minutes before, vehicle control 25.2 ± 2.2
Method: This test was carried out referring to the methods of Inoue, K., Motonaga, A. and Nishimura, T. [Arzneimittel Forshung/Drug Research 41 (1): 235-239 (1991)] and of Murata, T., et al. [Nature 388: 678-682 (1997)]: 7.5 mL/kg of a 0.9% aqueous solution of acetic acid was injected intraperitoneally into an ICR-strain male mouse (6 to 8 weeks old). The number of induced writhes (characteristic behavior of contracting the abdomen, twisting the body and/or extending the hind legs in agony) was counted in a period between 10 minutes and 20 minutes after the injection. A compound of the present invention was homogeneously suspended in 2% Tween 80/saline for injection use and injected intraperitoneally 30 minutes before the induction of stimulation by the acetic acid injection. Alternatively the compound was homogeneously suspended in 2% Tween 80/distilled water and orally administered an hour before the stimulation induction by the acetic acid injection. The analgesic activity of the compound of the present invention was evaluated on the basis of how many writhes were suppressed by the administration. Indomethacin or aspirin was administered as the positive control.

[2] = tested on: mouse ear edema induced by TPA; type: in vivo, ICR-strain male mouse; conditions: topical, measured 6 hours after TPA
Method: This test was carried out referring to the methods of Carlson, R. P., et al. [Agents and Actions 17 (2): 197-204 (1985)] and of Chang, J., et al. [European Journal of Pharmacology 142: 197-205 (1987)]: 5 μg/20 μL of TPA (Sigma Chemical Co., Ltd.) dissolved in ethanol was applied on the anterior and posterior surfaces of the right ear of an ICR-strain male mouse (6 to 7 weeks old). The thickness of a specific area of each of the ears was measured 3 times by a digimatic micrometer 6 hours after the application. The mean values were calculated. Ear edema was determined by subtracting the mean thickness of the non-treated left ear from that of the TPA-applied right ear. A topical application activity was evaluated in a way that an acetone solution or a 0.1% Tween 80/acetone solution of a compound of the present invention was applied on the anterior and posterior surfaces of the right ear 30 minutes before and 15 minutes after the application of TPA. […] An oral administration activity was evaluated by forced oral administration of a suspension of a compound of the present invention in 2% Tween 80/distilled water an hour before applying TPA. […]

Q: Which “No. of writhes (mean ± S.E.)” value ([1]; 30 mg/kg) does the source give for `CC(=O)Oc1ccccc1C(=O)O` [Aspirin, aspirin] here?
A: 9.5 ± 2.0

Q: Which “Ear edema inhibition (%)” value ([2]; 1 mg/20 μL/ear × 2) does the source give for `CC(=O)OCC(=O)[C@@]1(O)[C@H](C)C[C@H]2[C@@H]3CCC4=CC(=O)C=C[C@]4(C)[C@@]3(F)[C@@H](O)C[C@@]21C` [DEX-Ac, dexamediasone-21-acetate] here?
A: 79.6%

Q: What does the source list for `COc1ccc2c(c1)c(CC(=O)O)c(C)n2C(=O)c1ccc(Cl)cc1` [Indomethacin, indomethacin]?
A: Ear edema inhibition (%) ([2]; 3 mg/40 μL/ear × 2): 63.5%; No. of writhes (mean ± S.E.) ([1]; 3 mg/kg): 13.8 ± 3.0; No. of writhes (mean ± S.E.) ([1]; 10 mg/kg): 4.8 ± 0.9
